Test systems include CCRF-CEM; HL-60; SK-MEL-5; UACC-62; BT-549; KM12; SF-268; HOP-92; SR; SNB-75; SK-OV-3; OVCAR-3; PC-3; LOX IMVI; MCF7; MDA-MB-231; IGROV-1; SNB-19; T47D; OVCAR-5.
Common to all, as to experiment: DTP human tumour cell line panel, 48 h

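Tested at 5 concentrations; 48 h exposure; 96-well plates; endpoints linearly interpolated, else capped at highest concentration. Abbreviation: GI50, concentration required for 50% inhibition of growth.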 Activity calls are given as the source filed them. Cut-off read from the data, not from the text of the source: active = GI50 up to about 1.1 µM and inactive = higher.

The GI50 is the concentration giving 50% growth inhibition. Take `C=CCOn1c(C=C)nc2c(C)cccc21`: the GI50 in the experiment on CCRF-CEM was 1.33 µM (inactive); in the experiment with HL-60, 1.98 µM (inactive); in the experiment with SK-MEL-5, 3.89 µM (inactive); in the experiment on UACC-62 it was 2.56 µM (inactive); with BT-549, 5.16 µM (inactive); in the experiment on KM12, 3.41 µM (inactive). In addition, the GI50 in the experiment on SF-268 was 3.89 µM (inactive); in the experiment with HOP-92, 8.32 µM (inactive); with SR, 2.46 µM (inactive); with SNB-75, 3.59 µM (inactive); with SK-OV-3 it was 2.4 µM (inactive); with OVCAR-3, 2.48 µM (inactive). Moreover, the GI50 with PC-3 is 3.08 µM (inactive); in the experiment on LOX IMVI, 2.9 µM (inactive); with MCF7, 2.92 µM (inactive); in the experiment on MDA-MB-231 it was 3.83 µM (inactive); with IGROV-1, 7.35 µM (inactive); in the experiment on SNB-19, 5.2 µM (inactive). Moreover, the GI50 in the experiment on T47D was 1.99 µM (inactive); with OVCAR-5, 7.03 µM (inactive).
Consider `[O-][n+]1ccc(NO)c2ccccc21`, for which the GI50 is 0.492 µM (active) with CCRF-CEM; 0.923 µM (active) in the experiment on HL-60; 1.25 µM (inactive) in the experiment on SK-MEL-5; 1.22 µM (inactive) in the experiment on UACC-62; 0.689 µM (active) in the experiment with BT-549; 0.984 µM (active) in the experiment on KM12. Moreover, the GI50 was 0.565 µM (active) in the experiment with SF-268; 2.07 µM (inactive) in the experiment on HOP-92; 0.106 µM (active) in the experiment with SR; 0.516 µM (active) in the experiment on SNB-75; 0.518 µM (active) with SK-OV-3; 2.3 µM (inactive) in the experiment on OVCAR-3. Also, the GI50 is 1.51 µM (inactive) in the experiment on PC-3; 1.45 µM (inactive) with LOX IMVI; 0.883 µM (active) with MCF7; 1.32 µM (inactive) in the experiment on MDA-MB-231; 1.65 µM (inactive) in the experiment on IGROV-1; 2.34 µM (inactive) in the experiment with SNB-19. The GI50 is 1.67 µM (inactive) in the experiment on T47D and 3.73 µM (inactive) with OVCAR-5.
As to `O=C1CSC(c2ccc(Cl)cc2)N1c1ccc(-c2ccc(-n3c(-c4ccccc4)nc4ccccc4c3=O)cc2)cc1` (stereo not given), the GI50 in the experiment with CCRF-CEM is 30.6 µM (inactive); in the experiment on HL-60 it was > 100 µM (inactive); in the experiment on SK-MEL-5 it was 24.2 µM (inactive); in the experiment on UACC-62 it was 20.2 µM (inactive); in the experiment on BT-549 it was 19 µM (inactive); in the experiment on KM12, 26.2 µM (inactive). Moreover, the GI50 was 21.6 µM (inactive) in the experiment with SF-268; 11.4 µM (inactive) with HOP-92; 28.2 µM (inactive) with SR; 4 µM (inactive) in the experiment with SNB-75; 31.1 µM (inactive) with SK-OV-3; > 100 µM (inactive) in the experiment with OVCAR-3. The GI50 with PC-3 is 26.1 µM (inactive); with LOX IMVI, 17.7 µM (inactive); in the experiment on MCF7 it was 30.7 µM (inactive); in the experiment on MDA-MB-231, 38.8 µM (inactive); with IGROV-1 it was 19 µM (inactive); in the experiment with SNB-19 it was 38.5 µM (inactive). Further, the GI50 in the experiment on T47D was 13.8 µM (inactive); in the experiment on OVCAR-5, > 10 µM (inactive).
As to `COC(=O)c1cc2c(n1S(=O)(=O)c1ccc(C)cc1)C(=O)C(=O)c1[nH]cc(C(=O)OCc3ccccc3)c1-2`, the GI50 with CCRF-CEM is 0.0873 µM (active); with HL-60, 0.0289 µM (active); in the experiment on SK-MEL-5, 0.0237 µM (active); in the experiment with UACC-62, 0.0555 µM (active); in the experiment with BT-549, 0.183 µM (active); in the experiment with KM12 it was 0.231 µM (active). For the same molecule, the GI50 is 0.221 µM (active) in the experiment on SF-268; 0.236 µM (active) in the experiment on HOP-92; 0.0906 µM (active) in the experiment on SR; 0.147 µM (active) in the experiment with SNB-75; 0.871 µM (active) in the experiment with SK-OV-3; < 0.0141 µM (active) with OVCAR-3. Besides, the concentration for 50% growth inhibition (GI50) with PC-3 is 0.264 µM (active); in the experiment on LOX IMVI, 0.0553 µM (active); in the experiment on MCF7, 0.0668 µM (active); with MDA-MB-231, 0.0274 µM (active); in the experiment with IGROV-1, 0.197 µM (active); in the experiment with SNB-19, 0.191 µM (active). For the same molecule, the GI50 is 0.216 µM (active) in the experiment with T47D and 0.575 µM (active) with OVCAR-5.
On to `Cn1c(-c2cccs2)cc(-c2ccccc2)c1-c1cccs1`, for which the GI50 was > 100 µM (inactive) in the experiment with CCRF-CEM; 68.7 µM (inactive) in the experiment on HL-60; 18.6 µM (inactive) with SK-MEL-5; 97.5 µM (inactive) with UACC-62; > 100 µM (inactive) in the experiment with BT-549; 74 µM (inactive) with KM12. Besides, the GI50 with SF-268 was > 100 µM (inactive); in the experiment with HOP-92, > 100 µM (inactive); with SR it was 18.2 µM (inactive); with SNB-75, > 100 µM (inactive); with SK-OV-3, 36.1 µM (inactive); with OVCAR-3, 20.4 µM (inactive). Moreover, the GI50 in the experiment on PC-3 is 58.5 µM (inactive); with LOX IMVI it was > 100 µM (inactive); in the experiment on MCF7, 3.58 µM (inactive); in the experiment on MDA-MB-231, > 100 µM (inactive); with IGROV-1 it was 39.4 µM (inactive); in the experiment with SNB-19, 12.2 µM (inactive). The GI50 is > 100 µM (inactive) in the experiment on T47D and 88.5 µM (inactive) in the experiment with OVCAR-5.
For the molecule `CN(C)c1ccc2cc3ccc(N(C)C)cc3nc2c1` [ACRIDINE ORANGE], the GI50 in the experiment on CCRF-CEM was 0.678 µM (active); in the experiment with HL-60 it was 0.331 µM (active); with SK-MEL-5, 1.99 µM (inactive); in the experiment on UACC-62, 4.05 µM (inactive); in the experiment with BT-549 it was 6.78 µM (inactive); with KM12, 0.488 µM (active). In addition, the GI50 was 1.52 µM (inactive) in the experiment on SF-268; 4.32 µM (inactive) in the experiment on HOP-92; 0.0849 µM (active) with SR; 2.1 µM (inactive) with SNB-75; 5.85 µM (inactive) in the experiment on SK-OV-3; 2.95 µM (inactive) in the experiment with OVCAR-3. For the same molecule, the GI50 in the experiment with PC-3 was 2.04 µM (inactive); in the experiment with LOX IMVI it was 1.31 µM (inactive); in the experiment with MCF7, 0.714 µM (active); in the experiment on MDA-MB-231, 1.19 µM (inactive); in the experiment with IGROV-1, 2.2 µM (inactive); with SNB-19 it was 0.984 µM (active). The GI50 in the experiment on T47D is 12.1 µM (inactive); in the experiment with OVCAR-5, 2.75 µM (inactive).
On to `COc1ccc2nc3ccc(OC)cc3c([S+]([O-])Cc3ccc([N+](=O)[O-])cc3)c2c1` (stereo not given), for which the GI50 is 2.11 µM (inactive) in the experiment on CCRF-CEM; 1.75 µM (inactive) with HL-60; 16.7 µM (inactive) in the experiment on SK-MEL-5; 15.2 µM (inactive) with UACC-62; 18.7 µM (inactive) in the experiment with BT-549; 18.4 µM (inactive) in the experiment with KM12. Further, the GI50 in the experiment on SF-268 was 22.1 µM (inactive); with HOP-92, 3.13 µM (inactive); with SR, 8.18 µM (inactive); in the experiment with SNB-75, 19.3 µM (inactive); in the experiment with SK-OV-3, 21.1 µM (inactive); in the experiment with OVCAR-3, 5.47 µM (inactive). Also, the GI50 was 14.5 µM (inactive) in the experiment with PC-3; 5.16 µM (inactive) in the experiment on LOX IMVI; 1.92 µM (inactive) in the experiment with MCF7; 15.7 µM (inactive) in the experiment on MDA-MB-231; 5.3 µM (inactive) with IGROV-1; 21.3 µM (inactive) in the experiment on SNB-19. In addition, the figures for the GI50 in the experiment with T47D and in the experiment on OVCAR-5 were 1.95 µM (inactive) and 12.9 µM (inactive), respectively.
For the molecule `O=[N+]([O-])c1ccc2c(/N=N/c3ccc4ccccc4c3O)c(O)cc(S(=O)(=O)O)c2c1`, the GI50 with CCRF-CEM was 8.77 µM (inactive); with HL-60, 9.06 µM (inactive); in the experiment on SK-MEL-5, 15.8 µM (inactive); in the experiment with UACC-62, 7.21 µM (inactive); in the experiment on BT-549, 25.7 µM (inactive); in the experiment with KM12 it was 31.8 µM (inactive). Besides, the GI50 is 8.89 µM (inactive) in the experiment with SF-268; 21.6 µM (inactive) in the experiment with HOP-92; > 29.3 µM (inactive) in the experiment with SR; 26.7 µM (inactive) with SNB-75; 18.7 µM (inactive) with SK-OV-3; 4.89 µM (inactive) with OVCAR-3. Also, the GI50 was 18.2 µM (inactive) in the experiment on PC-3; 6.65 µM (inactive) in the experiment on LOX IMVI; 30.3 µM (inactive) in the experiment with MCF7; 35 µM (inactive) in the experiment on MDA-MB-231; 8.65 µM (inactive) in the experiment on IGROV-1; 13.2 µM (inactive) with SNB-19. In addition, the GI50 was 20.4 µM (inactive) in the experiment with T47D and 15.1 µM (inactive) in the experiment with OVCAR-5.
`O=c1[nH]cnc2c(C3OC(CO)C(O)C3O)c[nH]c12` (stereo not given): the GI50 in the experiment with CCRF-CEM, in the experiment on HL-60, in the experiment on SK-MEL-5, with UACC-62, in the experiment on BT-549 and in the experiment on KM12 was > 100 µM (inactive) each time. The GI50 with SF-268 was > 100 µM (inactive); in the experiment on HOP-92 it was 68.7 µM (inactive); with SR it was > 100 µM (inactive); in the experiment on SNB-75 it was > 100 µM (inactive); with SK-OV-3, > 100 µM (inactive); in the experiment on OVCAR-3, > 100 µM (inactive). The GI50 in the experiment on PC-3, in the experiment with LOX IMVI, in the experiment on MCF7, in the experiment with MDA-MB-231, with IGROV-1 and in the experiment with SNB-19 was > 100 µM (inactive) in each case. Also, the GI50 in the experiment on T47D and in the experiment on OVCAR-5 was > 100 µM (inactive) throughout.
Regarding `Cc1ccccc1C(=O)N1CCc2c([nH]c3ccccc23)C1`, the GI50 in the experiment on CCRF-CEM is 24.8 µM (inactive); in the experiment on HL-60, 17.5 µM (inactive); in the experiment with SK-MEL-5, 15.9 µM (inactive); in the experiment with UACC-62, 16 µM (inactive); in the experiment with BT-549 it was 18.7 µM (inactive); in the experiment with KM12 it was 25.9 µM (inactive). The GI50 is 35.6 µM (inactive) in the experiment on SF-268; 15.1 µM (inactive) in the experiment with HOP-92; 13.7 µM (inactive) in the experiment on SR; 20.6 µM (inactive) in the experiment on SNB-75; 32.4 µM (inactive) with SK-OV-3; 27.5 µM (inactive) with OVCAR-3. Also, the GI50 in the experiment on PC-3 was 14 µM (inactive); in the experiment with LOX IMVI it was 21.9 µM (inactive); with MCF7 it was 21 µM (inactive); with MDA-MB-231, 12.7 µM (inactive); in the experiment on IGROV-1, 25.7 µM (inactive); with SNB-19 it was 41.7 µM (inactive). The GI50 in the experiment with T47D was 21.9 µM (inactive); in the experiment on OVCAR-5, 19.5 µM (inactive).

Values taken from ChEMBL document CHEMBL1201862, “PubChem BioAssay data set” (2004).
